{"source": "paper PMC10947197", "about": "“Acid‐Resistant BODIPY Amino Acids for Peptide‐Based Fluorescence Imaging of GPR54 Receptors in Pancreatic Islets” (Angewandte Chemie (International Ed. in English), 2023);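 for Chemical stability (HPLC-MS): chemical integrity of the BODIPY-labelled tryptophan amino acids checked after exposure to reagents used in solid-phase peptide synthesis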;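 for Stability (purity by HPLC-MS): chemical integrity of the BODIPY-labelled tryptophan amino acids checked after exposure to reagents used in solid-phase peptide synthesis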;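 for Stability in TFA (in words): chemical integrity of the BODIPY-labelled tryptophan amino acids checked after exposure to reagents used in solid-phase peptide synthesis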;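 for Stability to iodine (in words): chemical integrity of the BODIPY-labelled tryptophan amino acids checked after exposure to reagents used in solid-phase peptide synthesis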", "key": {"[1]": {"assay": "Photostability under continuous light irradiation", "type": "physicochemical", "conditions": "50 µM, buffer, 37°C, continuous irradiation (Xe lamp, 20 W), λexc 450 nm, λem 510 nm, n=6", "method": "S u p p l emen t ary Figure 7. Nor m alized f luoresc ence em is s ion of Trp-BODIPY PLUS ( 50 µ M , buf f er ) at 37° C und er c o nt inu ous l ight ir r adi at ion ( Xe l am p, 20 W ) . λexc: 450 nm; λem: 510 nm . V alues pr es ent e d as m eans ±S D ( n= 6).\nSupplementary Figure 8 . Linear r egr es s ions of t he p eak a bs or b anc e ar ea ( m A U) of T rp-BO DI PY PLUS in DMSO (re d) an d PBS (c ont a ini ng ≤ 1% DM S O , bl ue) at d if f er ent c onc ent r at i ons of t he ami no ac id. Valu es wer e det ermi ned by HPLC-MS us ing UV det ec t ion at 51 0 nm . R2 v alues : 0. 99 9 ( r ed) , 0. 99 4 ( blu e) .\n(also on this page, place not known: time (min) Normalized photostability Normalized fluorescence emission (50 µM, buffer) 37°C under continuous light irradiation (Xe lamp, W) nm; nm. Values presented means±SD (n=6). µM) Peak area (mAU) DMSO) Supplementary 8. regressions the peak absorbance area (mAU) Trp-BODIPY DMSO (red) and (containing ≤1% DMSO, blue) different concentrations the amino acid. Values were determined using detection 510 nm. values: 0.999 (red), 0.994 (blue).)"}, "[2]": {"assay": "Fluorogenic behavior in phosphatidylcholine liposome suspensions", "type": "physicochemical", "conditions": "PBS vs phosphatidylcholine liposome suspensions; λexc 450 nm, λem 510 nm", "method": "Figure 1 a) Chemical structure of the Fmoc‐protected Trp‐BODIPY PLUS amino acid for general peptide synthesis. b) Fluorescence emission spectra of Trp‐BODIPY PLUS (25 μM) in phosphate buffer saline (PBS) suspensions with increasing content of phosphatidylcholine liposomes. λ exc: 450 nm. Inset) UV‐irradiated pictograms of Trp‐BODIPY PLUS in hydrophilic (bottom) and hydrophobic (top) environments. c) Peptide sequences synthesized with Trp‐BODIPY and Trp‐BODIPY PLUS, their biological targets, solid supports, protected amino acids and purities after SPPS. RA: Rink Amide, TG: TentaGel, CTC: chlorotrityl, PS: polystyrene,^[a] not determined due to degradation of BODIPY. d) Synthetic scheme and structures of KP‐10 analogues with Trp‐BODIPY PLUS instead of the native Trp (peptide 7) or at the N‐terminal end (peptide 8).\n(§1) BODIPY PLUS (10 µM) in phosph ate buffer salin e (PBS, white bars) an d phosp hat idy lcho lin e li posom e susp ensi ons (gr ey bars). λ exc: 45 0 nm; λem: 51 0 nm.\n(§2) V alues pr es ent e d as m ea ns ±S E M ( n= 3) .\n(§3) Tr p-BODIPY P LU S (-20 °C, solid)\n(§4) Tr p-BODIPY P LU S (-20 °C, DMSO)\n(§5) S u p p l emen t ary F i gu re 6 . HP LC tr ac es of T r p-B O DI P Y P LUS aft er 5 m ont hs st or age in t he f r eez er as po wder ( t op) and as 5 mM DMSO s olut i ons ( bot t om ). […]\nSp ectro sco p y mea su rem en ts. […]"}, "[3]": {"assay": "Storage stability (HPLC)", "type": "physicochemical", "conditions": "5 months in freezer (-20 °C), powder and 5 mM DMSO solution", "method": "as §1, §2, §3, §4, §5"}, "[4]": {"assay": "Stability analysis of Trp-BODIPY FlAAs under SPPS conditions", "conditions": "for Stability (purity by HPLC-MS): 70 μM; for Stability (purity by HPLC-MS) / Chemical stability (HPLC-MS): r.t.; for Chemical stability (HPLC-MS): 70 µM", "experimental": "Next, we studied the stability of Trp‐BODIPY PLUS in TFA and compared it to that of Trp‐BODIPY (Table 2).\nAnalysis of t he chemical st abilit y of T rp-BO DI PY and T rp-\nBODIPY PLUS under conve nt ion al SPPS condit i ons. Amino aci ds were di lut ed w it h\ndif f erent rea gent mixt ur es (70 µ M , f inal v olum e 10 0 uL) a nd st irre d at r. t . f or 1 h\n( c ondit i ons A-B and E-H) or 5 m i n ( c o ndit i ons C an d D).\nFmoc-T rp -BO DI PY(X)2-OH\nEn t ry Conditions X = F X = CN"}}}
{"molecule": "CC1=CC(C)=[N+]2C1=C(c1cccc(-c3[nH]c4ccccc4c3C[C@H](NC(=O)OCC3c4ccccc4-c4ccccc43)C(=O)O)c1)c1c(C)cc(C)n1[B-]2(C#N)C#N", "note": "[Trp-BODIPY PLUS]", "values": [{"measurement": "Photostability (in words)", "setting": "[1]", "value": "suitable solubility and photo‐ and chemical stability for long‐term storage"}, {"measurement": "Fluorogenic behavior (in words)", "setting": "[2]", "value": "strong fluorogenic behavior"}, {"measurement": "Chemical stability on storage (in words)", "setting": "[3]", "value": "chemical stability for long‐term storage"}, {"measurement": "Stability (purity by HPLC-MS)", "setting": "[4]; 2% N2H4 in DMF, 60 min", "value": "> 95", "unit": "%"}, {"measurement": "Stability (purity by HPLC-MS)", "setting": "[4]; 95% TFA, 2.5% DTT, 60 min, DCM", "value": "> 95", "unit": "%"}, {"measurement": "Stability (purity by HPLC-MS)", "setting": "[4]; 95% TFA, 2.5% H2O, 60 min, DCM", "value": "> 95", "unit": "%"}, {"measurement": "Stability (purity by HPLC-MS)", "setting": "[4]; 95% TFA, 2.5% TIS, 60 min, DCM", "value": "> 95", "unit": "%"}, {"measurement": "Stability (purity by HPLC-MS)", "setting": "[4]; 95% TFA, 5 min, DCM", "value": "> 95", "unit": "%"}, {"measurement": "Stability in TFA (in words)", "setting": "[4]; 95% TFA, 1 h", "value": "fully resistant to TFA even after 1 h"}, {"measurement": "Stability (purity by HPLC-MS)", "setting": "[4]; 95% TFA, 60 min, DCM", "value": "> 95", "unit": "%"}, {"measurement": "Stability (purity by HPLC-MS)", "setting": "[4]; I2 (5 eq) in MeOH, 60 min", "value": 6, "unit": "%"}, {"measurement": "Stability (purity by HPLC-MS)", "setting": "[4]; Pd(PPh3)4 (0.1 eq), PhSiH3 (10 eq), 60 min, DCM", "value": "> 95", "unit": "%"}, {"measurement": "Chemical stability (HPLC-MS)", "setting": "[4]; Supplementary Table 2 entry A: 1% TFA, 2.5% DTT, 1 h", "value": "> 95", "unit": "%"}, {"measurement": "Chemical stability (HPLC-MS)", "setting": "[4]; Supplementary Table 2 entry B: 5% TFA, 2.5% DTT, 1 h", "value": "> 95", "unit": "%"}, {"measurement": "Chemical stability (HPLC-MS)", "setting": "[4]; Supplementary Table 2 entry C: 95% TFA, 2.5% DTT, 5 min", "value": "> 95", "unit": "%"}, {"measurement": "Chemical stability (HPLC-MS)", "setting": "[4]; Supplementary Table 2 entry D: 20% piperidine: DMF, 5 min", "value": "> 93", "unit": "%"}, {"measurement": "Chemical stability (HPLC-MS)", "setting": "[4]; Supplementary Table 2 entry E: 5% NaHCO3 (aq), 1 h", "value": "> 95", "unit": "%"}, {"measurement": "Chemical stability (HPLC-MS)", "setting": "[4]; Supplementary Table 2 entry F: 5% Na2CO3 (aq), 1 h", "value": "> 95", "unit": "%"}, {"measurement": "Chemical stability (HPLC-MS)", "setting": "[4]; Supplementary Table 2 entry G: 1% DIPEA: DMF, 1 h", "value": "> 95", "unit": "%"}, {"measurement": "Chemical stability (HPLC-MS)", "setting": "[4]; Supplementary Table 2 entry H: 0.1 M HOBt: TFE, 1 h", "value": "> 95", "unit": "%"}, {"measurement": "Stability (purity by HPLC-MS)", "setting": "[4]; TBAF (3 eq), 60 min, DCM", "value": "> 95", "unit": "%"}, {"measurement": "Stability to iodine (in words)", "setting": "[4]; presence of iodine", "value": "degraded in the presence of iodine"}]}
